Test results reported in article PMC3059644 (Frontiers in Psychiatry, 2010).
Like-named read-outs stand apart in the source and are kept apart here. Values belong to the compound of their own block, whether it stands above or below them.

Experiments:
adenosine A2B receptor = details: cited from earlier work
[1] = target: atypical adenosine A2A receptors; experiment: Displacement of [3H]CGS21680 binding in rat striatum in the presence of CSC (atypical sites)
[2] = test system: atypical adenosine A2A receptors; experiment: Displacement of [3H]CGS21680 binding in rat hippocampus in the presence of CSC (atypical sites)
Method: The collected tissues were homogenized in about 25 volumes of incubation buffer and centrifuged at 40,000 g for 10 min at 4°C. The pellet was resuspended in the same fresh buffer, homogenized, centrifuged once again and the final pellet stored at −80°C until use. […] Prior to the competition binding assay, the pellet was resuspended in appropriate buffer at the wanted protein concentration and membrane suspension incubated with 5 U/ml adenosine deaminase (ADA, Sigma-Aldrich) for 30 min at 37°C to remove endogenous adenosine. The protein concentration of membrane suspension was determined using the Bradford method (Pierce, Rockford, IL, USA) with bovine albumin as standard. Competition binding experiments with [^3H]CGS21680 were performed by incubating membranes (50–100 μg of protein/sample) with a single concentrations of [^3H]CGS21680 (30 nM) for 2 h at room temperature in a solution containing 50 mM Tris-HCl, pH 7.4, 10 mM MgCl2 and 5 U/ml ADA and various concentrations (ranging from 10^−5 to 10^−12 M) of test compounds. Non-specific binding was determined in the presence of an excess of cold 2-chloroadenosine (Sigma-Aldrich). The binding reactions were stopped by vacuum filtration through GF/B filters, followed by washing of the filters with ice-cold washing buffer (same composition as the binding buffer) and filter-bound radioactivity measured by scintillation spectrometry. Competition studies were performed with the various compounds alone or in the presence of an excess of either CSC or DPCPX (both from Sigma-Aldrich). The compounds were dissolved in 100% DMSO (Sigma-Aldrich) at a concentration of 10 mM and stored at −20°C. An intermediate 100 μM working solution was prepared in water and subsequent scalar working solutions in incubation buffer.

[3] = test system: [3H]CGS21680 binding sites; set-up: method as in Cunha et al., 1996, 1997; details: ref Cunha et al., 1996, 1997, cited from earlier work
[4] = test system: adenosine A2A receptors versus A1 receptors; details: cited from earlier work
[5] = target: T1, typical adenosine A2A receptors (Rattus norvegicus, UniProt P30543); experiment: [3H]CGS21680 specific binding in rat hippocampus in the presence of DPCPX (typical sites); details: DPCPX used to isolate typical sites
adenosine A1 receptors = target: adenosine A1 receptors; set-up: method as in Hutchison et al., 1989; details: ref Hutchison et al., 1989; cited from earlier work
adenosine A2A receptors = details: read-out: Ki for adenosine A2A receptors; ref Hutchison et al., 1989; cited from earlier work
[6] = target: T1, typical adenosine A2A receptors; experiment: Displacement of [3H]CGS21680 binding in rat striatum in the presence of DPCPX (typical sites)
A1 and A2A receptors = details: transfected cells; ref Minetti et al., 2005; cited from earlier work
[7] = target: T2, total adenosine A2A receptors (Rattus norvegicus, UniProt P30543); experiment: Displacement of [3H]CGS21680 binding in rat hippocampal membranes, compounds alone (total)
[8] = target: T2, total adenosine A2A receptors; experiment: Displacement of [3H]CGS21680 binding in rat striatal membranes, compounds alone (total)

T1 sequence (P30543 whole entry): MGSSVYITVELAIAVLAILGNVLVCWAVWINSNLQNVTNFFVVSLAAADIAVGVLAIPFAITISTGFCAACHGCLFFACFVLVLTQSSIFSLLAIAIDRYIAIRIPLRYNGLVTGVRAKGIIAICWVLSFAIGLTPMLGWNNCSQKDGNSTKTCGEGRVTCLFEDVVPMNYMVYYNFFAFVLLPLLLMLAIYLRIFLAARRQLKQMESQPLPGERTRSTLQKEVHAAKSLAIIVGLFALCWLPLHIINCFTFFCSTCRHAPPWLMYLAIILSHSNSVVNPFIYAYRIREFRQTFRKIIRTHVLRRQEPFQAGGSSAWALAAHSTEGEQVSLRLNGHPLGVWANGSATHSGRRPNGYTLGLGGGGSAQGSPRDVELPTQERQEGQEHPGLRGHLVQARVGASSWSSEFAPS
T2 sequence (P30543 whole entry): as above

Structure (SMILES): Nc1nc(NCCc2ccc(O)cc2)nc2nc(-c3ccco3)nn12 [ZM241385, reference compound]
- concentrations for A2B receptor higher than those for A2A receptors (adenosine A2B receptor; ref Linden et al., 1999): 22 fold

- Ki [1]: 74.2 nM
- decrease in affinity for atypical binding sites [1]: decreased from two to five fold
- binding in hippocampus in the presence of CSC [2]: no binding
Structure (SMILES): CCn1c(=O)c2c(nc(/C=C/c3ccc(OC)c(OC)c3)n2C)n(CC)c1=O [KW6002, (E)-1,3-diethyl-8-(3,4-dimethoxystyryl)-7-methyl-3,7-dihydro-1H-purine-2,6,dione, reference compound]

Structure (SMILES): CCCn1c(=O)c2c(nc(/C=C/c3ccc(OC)c(OC)c3)n2C)n(CCC)c1=O [KF17837, (E)-8-(3,4-dimethoxystyryl)-1,3-dipropyl-7-methylxanthine]
- loss of potency in inhibiting [3H]CGS21680 binding in hippocampus and cortex versus striatal membranes [3]: 10 fold
- A2A/A1 selectivity ([4]; ref Nonaka et al., 1994): 62 fold

- effect on [3H]CGS21680 specific binding in hippocampus [5]: completely abolished
Structure (SMILES): CCCn1c(=O)c2[nH]c(C3CCCC3)nc2n(CCC)c1=O [DPCPX, 8-cyclopentyl-1,3-dipropylxanthine]
- concentrations displacing most of the [3H]CGS21680 binding in hippocampus and cortex ([3]; hippocampus and cortex, not striatum): low nanomolar concentrations

Structure (SMILES): CCNC(=O)[C@H]1O[C@@H](n2cnc3c(N)nc(NCCc4ccc(CCC(=O)O)cc4)nc32)[C@H](O)[C@@H]1O [CGS21680, 2-p-(2-carboxyethyl)phenethyl-amino-5’-N-ethylcarbox-amidoadenosine]
- Ki (adenosine A1 receptors): ~3100 nM
- Ki (adenosine A2A receptors): ~22 nM

Structure (SMILES): CCCCc1nc(N)c2nc(-n3nccn3)n(C)c2n1 [ST1535, 2 butyl-9-methyl-8-(2H-1,2,3-triazol 2-yl)-9H-purin-6-xylamine]
- Hill Slope ([6]; Figure 2, rat striatum, 100 nmol/L DPCPX): -1.007
- IC50 ([6]; Figure 2, rat striatum, 100 nmol/L DPCPX, (95% CI)): 118 nM
- Ki ([6]; rat striatal membranes, in the presence of DPCPX, mean (95% CI)): 33.7 nM
- Hill coefficient, typical striatal receptors ([6]; striatum, typical): around the unit
- ratio between A1 and A2A receptors (A1 and A2A receptors): about 10 fold
- Hill coefficients in the hippocampus ([7]; hippocampus): 0.6–0.8
- difference in affinity values between striatum and hippocampus ([7]; total A2A binding, hippocampus versus striatum): about 5 fold
- IC50 ([1]; Figure 3, rat striatum, 200 nmol/L CSC, (95% CI)): 256 nM
- Ki ([1]; rat striatal membranes, in the presence of CSC, mean (95% CI)): 73 nM
- decrease in affinity for atypical binding sites ([1]; striatum, atypical versus total and typical): decreased from two to five fold
- IC50 ([2]; Figure 5, rat hippocampus, 200 nmol/L CSC, (95% CI)): 446 nM
- binding in hippocampus in the presence of CSC ([2]; hippocampus, in the presence of CSC): displaced some affinity
- Ki ([2]; read-out: Ki values (nM) in hippocampus, Atypical, rat hippocampal membranes, in the presence of CSC, mean (95% CI)): 146 nM
- IC50 ([8]; Figure 1, rat striatum, 30 nmol/L [3H]CGS21680, (95% CI), read-out: IC50): 79.6 nM
- Ki ([8]; rat striatal membranes, 30 nM [3H]CGS21680, mean (95% CI) of 3-4 experiments, read-out: Ki values (nM) in striatum, Total): 22.8 nM
- Hill coefficient, total striatal receptors ([8]; striatum, total): 0.7
- concentrations for A2B receptor higher than those for A2A receptors (adenosine A2B receptor; ref Stasi et al., 2006): about 3 fold

Structure (SMILES): Nc1nc2c(cnn2CCc2ccccc2)c2nc(-c3ccco3)nn12 [SCH58261, reference compound]
- difference in affinity values between striatum and hippocampus [7]: about 200 fold
- IC50 [8]: 16.7 nM
- Ki [8]: 4.8 nM

Structure (SMILES): Cn1c(=O)c2c(nc(C=Cc3cccc(Cl)c3)n2C)n(C)c1=O [CSC, 8-(3-chlorostyryl)-caffeine]
- loss of potency in inhibiting [3H]CGS21680 binding in hippocampus and cortex versus striatal membranes [3]: 10 fold
- A2A/A1 selectivity ([4]; ref Jacobson et al., 1993): 520 fold
